Test results: the supplement of paper PMC7017272
± gives the standard deviation of the averaged measurements.

Experiments:
Conditions in all cases: treatment time: 3 days
[1] = tested on: UT-SCC-24A; test: relative IC50 (midpoint of the fitted curve; maximal inhibition may be below 50%); higher = less potent
Experimental: (§1)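 HNSCC cell lines (500 cells/well, 384-well) were cultured on plastic, on top of (2D) or embedded (3D) in Matrigel or human leiomyoma matrix Myogel (500 ug/mL; Myogel 3D mixed with rat collagen I). Cells were treated for 3 days with 5 ten-fold concentrations of each drug, and viability was read by CellTiter-Glo. Viability was normalised to DMSO (0% inhibition) and 100 uM benzethonium chloride (100% inhibition) controls and fitted with the FIMM DSRT pipeline to give IC50 (nM), maximal % inhibition and the drug sensitivity score (DSS). Suffixes _1/_2/_3 on drug names are replicates.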

[2] = tested on: UT-SCC-106A; test: relative IC50 (midpoint of the fitted curve; maximal inhibition may be below 50%); higher = less potent
Procedure, shortened: (§2)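 HPV-negative HNSCC cell lines were seeded at 500 cells/well in 384-well plates on plastic, on Matrigel- or Myogel-coated wells (500 µg/mL), or embedded in Matrigel or Myogel plus rat collagen I. Compounds were given at five 10-fold concentrations for 3 days, and viability was read by CellTiter-Glo 2.0 luminescence. Signals were normalised to vehicle (0.1% DMSO) and cell-killing control wells. Percent-inhibition dose–response curves were fitted in the FIMM pipeline to derive IC50, maximal inhibition and drug sensitivity score.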

[3] = tested on: UT-SCC-73; test: as above
Procedure, shortened: as §2

[4] = tested on: UT-SCC-44; test: as above
Procedure, shortened: as §2

[5] = tested on: UT-SCC-42A; test: as above
Procedure, shortened: as §2

[6] = tested on: UT-SCC-14; test: as above
Procedure, shortened: as §2

[7] = tested on: UT-SCC-28; test: as above
Procedure, shortened: as §2

[8] = tested on: UT-SCC-81; test: as above
Procedure, shortened: as §2

[9] = tested on: UT-SCC-8; test: as above
Procedure, shortened: as §2

[10] = tested on: UT-SCC-40; test: as above
Procedure, shortened: as §2

[11] = tested on: UT-SCC-24B; test: as above
Procedure, shortened: as §2

[12] = tested on: UT-SCC-42B; test: as above
Procedure, shortened: as §2

[13] = tested on: UT-SCC-42A; test: maximal % inhibition of viability relative to DMSO; higher = stronger effect
Experimental: as §1, with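 “DMSO” for “DMSO (0% inhibition)”, “and” for “and 100 uM”, “chloride” for “chloride (100% inhibition)”, “DSS.” for “the drug sensitivity score (DSS).”, “_1/_2/_3” for “_1/_2/_3 on drug names”, “replicates. Only inhibition-mode (IC50) fits are kept.” for “replicates.”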

[14] = tested on: UT-SCC-14; test: as above
Experimental: as §1, with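 “DMSO” for “DMSO (0% inhibition)”, “and” for “and 100 uM”, “chloride” for “chloride (100% inhibition)”, “DSS.” for “the drug sensitivity score (DSS).”, “_1/_2/_3” for “_1/_2/_3 on drug names”, “replicates. Only inhibition-mode (IC50) fits are kept.” for “replicates.”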

[15] = tested on: UT-SCC-28; test: as above
Experimental: as §1, with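 “DMSO” for “DMSO (0% inhibition)”, “and” for “and 100 uM”, “chloride” for “chloride (100% inhibition)”, “DSS.” for “the drug sensitivity score (DSS).”, “_1/_2/_3” for “_1/_2/_3 on drug names”, “replicates. Only inhibition-mode (IC50) fits are kept.” for “replicates.”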

[16] = tested on: UT-SCC-81; test: as above
Experimental: as §1, with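 “DMSO” for “DMSO (0% inhibition)”, “and” for “and 100 uM”, “chloride” for “chloride (100% inhibition)”, “DSS.” for “the drug sensitivity score (DSS).”, “_1/_2/_3” for “_1/_2/_3 on drug names”, “replicates. Only inhibition-mode (IC50) fits are kept.” for “replicates.”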

[17] = tested on: UT-SCC-8; test: as above
Experimental: as §1, with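 “DMSO” for “DMSO (0% inhibition)”, “and” for “and 100 uM”, “chloride” for “chloride (100% inhibition)”, “DSS.” for “the drug sensitivity score (DSS).”, “_1/_2/_3” for “_1/_2/_3 on drug names”, “replicates. Only inhibition-mode (IC50) fits are kept.” for “replicates.”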

[18] = tested on: UT-SCC-40; test: as above
Experimental: as §1, with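 “DMSO” for “DMSO (0% inhibition)”, “and” for “and 100 uM”, “chloride” for “chloride (100% inhibition)”, “DSS.” for “the drug sensitivity score (DSS).”, “_1/_2/_3” for “_1/_2/_3 on drug names”, “replicates. Only inhibition-mode (IC50) fits are kept.” for “replicates.”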

[19] = tested on: UT-SCC-24B; test: as above
Experimental: as §1, with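 “DMSO” for “DMSO (0% inhibition)”, “and” for “and 100 uM”, “chloride” for “chloride (100% inhibition)”, “DSS.” for “the drug sensitivity score (DSS).”, “_1/_2/_3” for “_1/_2/_3 on drug names”, “replicates. Only inhibition-mode (IC50) fits are kept.” for “replicates.”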

[20] = tested on: UT-SCC-42B; test: as above
Experimental: as §1, with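 “DMSO” for “DMSO (0% inhibition)”, “and” for “and 100 uM”, “chloride” for “chloride (100% inhibition)”, “DSS.” for “the drug sensitivity score (DSS).”, “_1/_2/_3” for “_1/_2/_3 on drug names”, “replicates. Only inhibition-mode (IC50) fits are kept.” for “replicates.”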

[21] = culture condition: embedded in Matrigel
[22] = culture condition: embedded in Myogel + collagen I
[23] = culture condition: on top of Matrigel
[24] = culture condition: on top of Myogel
[25] = culture condition: plastic 2D (no matrix)

## C=CC(=O)Nc1cc2c(Nc3ccc(F)c(Cl)c3)ncnc2cc1OCCCN1CCOCC1 [Canertinib]
[1]; [21]
  relative IC50: 0.0381 µM
[1]; [22]
  relative IC50: 1.01 µM
[1]; [23]
  relative IC50: 0.0848 µM
[1]; [24]
  relative IC50: 1.63 µM
[1]; [25]
  relative IC50: 0.0831 µM
[2]; [21]
  relative IC50: 0.319 µM
[2]; [22]
  relative IC50: 2.83 µM
[2]; [23]
  relative IC50: 0.171 µM
[2]; [24]
  relative IC50: 2.27 µM
[2]; [25]
  relative IC50: 0.126 µM
[3]; [21]
  relative IC50: 2.12 µM
[3]; [22]
  relative IC50: 2.07 µM
[3]; [23]
  relative IC50: 1.66 µM
[3]; [24]
  relative IC50: 1.75 µM
[3]; [25]
  relative IC50: 1.65 µM
[4]; [21]
  relative IC50: 3.36 µM
[4]; [22]
  relative IC50: 2.36 µM
[4]; [23]
  relative IC50: 1.66 µM
[4]; [24]
  relative IC50: 2.05 µM
[4]; [25]
  relative IC50: 1.91 µM
[5]; [21]
  relative IC50: 0.253 µM
[5]; [22]
  relative IC50: 2.02 µM
[5]; [23]
  relative IC50: 0.205 µM
[5]; [24]
  relative IC50: 1.27 µM
[5]; [25]
  relative IC50: 0.238 µM
[6]; [21]
  relative IC50: 0.049 µM
[6]; [22]
  relative IC50: 0.97 µM
[6]; [23]
  relative IC50: 0.0591 µM
[6]; [24]
  relative IC50: 0.31 µM
[6]; [25]
  relative IC50: 0.0612 µM
[7]; [21]
  relative IC50: 3.42 µM
[7]; [22]
  relative IC50: 1.51 µM
[7]; [23]
  relative IC50: 1.63 µM
[7]; [25]
  relative IC50: 1.76 µM
[8]; [21]
  relative IC50: 0.0365 µM
[8]; [22]
  relative IC50: 1.51 µM
[8]; [23]
  relative IC50: 0.052 µM
[8]; [24]
  relative IC50: 1.59 µM
[8]; [25]
  relative IC50: 0.0696 µM
[9]; [21]
  relative IC50: 0.0349 µM
[9]; [22]
  relative IC50: 3.64 µM
[9]; [23]
  relative IC50: 0.0357 µM
[9]; [24]
  relative IC50: 0.912 µM
[9]; [25]
  relative IC50: 0.0393 µM
[10]; [21]
  relative IC50: 0.0489 µM
[10]; [22]
  relative IC50: 1.31 µM
[10]; [23]
  relative IC50: 0.0658 µM
[10]; [24]
  relative IC50: 1.27 µM
[10]; [25]
  relative IC50: 0.211 µM
[11]; [21]
  relative IC50: 0.253 µM
[11]; [22]
  relative IC50: 1.53 µM
[11]; [23]
  relative IC50: 0.234 µM
[11]; [24]
  relative IC50: 1.58 µM
[11]; [25]
  relative IC50: 0.0631 µM
[12]; [21]
  relative IC50: 0.0759 µM
[12]; [23]
  relative IC50: 0.299 µM
[12]; [24]
  relative IC50: 2.47 µM
[12]; [25]
  relative IC50: 0.808 µM
[13]; [21]
  maximal % inhibition of viability: 96.9 ± 4.2%
[13]; [22]
  maximal % inhibition of viability: 97.4 ± 3.2%
[13]; [23]
  maximal % inhibition of viability: 98.3 ± 1.7%
[13]; [24]
  maximal % inhibition of viability: 98 ± 1.9%
[13]; [25]
  maximal % inhibition of viability: 99.23 ± 0.8%
[14]; [21]
  maximal % inhibition of viability: 99.23 ± 0.75%
[14]; [22]
  maximal % inhibition of viability: 98.8 ± 1.1%
[14]; [23]
  maximal % inhibition of viability: 99.7 ± 0.27%
[14]; [24]
  maximal % inhibition of viability: 98.7 ± 1.7%
[14]; [25]
  maximal % inhibition of viability: 98.5 ± 1.4%
[15]; [21]
  maximal % inhibition of viability: 82.3 ± 4.4%
[15]; [22]
  maximal % inhibition of viability: 90.8 ± 3.4%
[15]; [23]
  maximal % inhibition of viability: 86.1 ± 2.4%
[15]; [25]
  maximal % inhibition of viability: 80.9 ± 5.2%
[16]; [21]
  maximal % inhibition of viability: 99.63 ± 0.4%
[16]; [22]
  maximal % inhibition of viability: 99.77 ± 0.32%
[16]; [23]
  maximal % inhibition of viability: 99.27 ± 0.64%
[16]; [24]
  maximal % inhibition of viability: 99.13 ± 0.75%
[16]; [25]
  maximal % inhibition of viability: 99.77 ± 0.4%
[17]; [21]
  maximal % inhibition of viability: 99.83 ± 0.29%
[17]; [22]
  maximal % inhibition of viability: 99 ± 1%
[17]; [23]
  maximal % inhibition of viability: 99.967 ± 0.058%
[17]; [24]
  maximal % inhibition of viability: 99.967 ± 0.058%
[17]; [25]
  maximal % inhibition of viability: 99.37 ± 0.85%
[18]; [21]
  maximal % inhibition of viability: 99.5 ± 0.46%
[18]; [22]
  maximal % inhibition of viability: 99.37 ± 0.55%
[18]; [23]
  maximal % inhibition of viability: 99.73 ± 0.38%
[18]; [24]
  maximal % inhibition of viability: 99.63 ± 0.55%
[18]; [25]
  maximal % inhibition of viability: 99.67 ± 0.58%
[19]; [21]
  maximal % inhibition of viability: 99.67 ± 0.31%
[19]; [22]
  maximal % inhibition of viability: 99.33 ± 0.61%
[19]; [23]
  maximal % inhibition of viability: 99.83 ± 0.29%
[19]; [24]
  maximal % inhibition of viability: 99.7 ± 0.52%
[19]; [25]
  maximal % inhibition of viability: 99.47 ± 0.46%
[20]; [21]
  maximal % inhibition of viability: 99.5 ± 0.36%
[20]; [23]
  maximal % inhibition of viability: 99.87 ± 0.23%
[20]; [24]
  maximal % inhibition of viability: 99.77 ± 0.4%
[20]; [25]
  maximal % inhibition of viability: 99.17 ± 0.74%
